In general, IC50 refers to the concentration that inhibits the measured activity by half.

Experiment [1] addresses Proteasome caspase-like activity (S26 protein from RPMI8226 cells) (Homo sapiens (Human), UniProt P28072). In words: Proteasome caspase-like activity inhibition (Z-Leu-Leu-Glu-AMC fluorogenic substrate, RPMI8226 cell extract). The experiment is classed as biochemical. The following applies: S26 protein from RPMI8226 cell extract 2 ug/well, substrate 20 uM, 37° C., 90 minutes. As for the experimental part: The abilities to inhibit the proteasome activity of the compounds described in the Examples of the present invention and boronic acid drugs were evaluated as follows.
RPMI8226 cells, which is a multiple myeloma cell line, were cultured and then separated by a centrifuge, and washed twice with phosphate buffered saline (PBS). 20 mM of a tris-HCl (pH 8.0) buffer solution was added to the washed cells, and the cells were disrupted by a homogenizer and centrifuged to obtain S26 protein from the supernatant. Suc-Leu-Leu-Val-Tyr-AMC, for a fluorogenic substrate for the chymotrypsin-like activity of the proteasome, and Z-Leu-Leu-Glu-AMC, for a fluorogenic substrate for the caspase-like activity, were purchased from Calbiochem, EMD Millipore and used. Into each well of a 96-well plate (opaque, black round bottom), 20 ul of the S26 protein (final RPMI8226 cell extract concentration: 2 ug/well), 10 ul of S26 proteasome inhibitor serially diluted from 10 uM (final DMSO concentration: 0.5%), and 20 ul of the fluorogenic substrate for the proteasome chymotrypsin-like or caspase-like activity (final concentration: 20 uM) were added and mixed and allowed to react in a 37° C. incubator for 90 minutes. The fluorescence of the fluorogenic substrate was measured by FlexStation II Fluorometer (Molecular Devices). The fluorescence inhibited by the compound diluted at each concentration was measured as the relative percentage value for the amount obtained from the treatment only with the S26 protein and the fluorogenic substrate. IC50 (inhibitory concentration 50) was expressed in terms of a concentration that inhibits 50% of the maximum fluorescence induced by the fluorogenic substrate.

The target of experiment [2] is Proteasome chymotrypsin-like activity (S26 protein from RPMI8226 cells) (Homo sapiens, UniProt P28074). The experiment is classed as biochemical. The note with it: S26 protein from RPMI8226 cell extract 2 ug/well, substrate 20 uM, 37° C., 90 minutes; read-out: Proteasome chymotrypsin-like activity inhibition IC50. The method in brief: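 Inhibition is measured in crude proteasome (S26) from RPMI8226 cells at 2 ug/well, using 20 uM substrate specific to each activity: Suc-LLVY-AMC for chymotrypsin-like, Z-LLE-AMC for caspase-like. Compounds span a dilution series from 10 uM.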
Sequence of Proteasome chymotrypsin-like activity (S26 protein from RPMI8226 cells) (P28074 60-263 limits assumed): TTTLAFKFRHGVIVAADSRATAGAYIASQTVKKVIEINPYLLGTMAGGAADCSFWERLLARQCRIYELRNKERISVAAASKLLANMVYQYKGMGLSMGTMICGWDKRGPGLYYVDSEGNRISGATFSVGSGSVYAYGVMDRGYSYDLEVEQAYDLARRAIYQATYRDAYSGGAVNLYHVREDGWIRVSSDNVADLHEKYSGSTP

Sequence of Proteasome caspase-like activity (S26 protein from RPMI8226 cells) (P28072 whole entry): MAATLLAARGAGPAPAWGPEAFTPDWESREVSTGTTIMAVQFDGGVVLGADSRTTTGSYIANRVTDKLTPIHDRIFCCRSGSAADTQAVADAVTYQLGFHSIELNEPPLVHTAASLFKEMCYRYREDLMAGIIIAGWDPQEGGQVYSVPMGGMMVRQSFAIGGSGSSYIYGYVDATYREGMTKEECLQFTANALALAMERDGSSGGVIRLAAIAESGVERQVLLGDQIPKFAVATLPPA

On to `O=C(N[C@@H](Cc1ccccc1)B(O)O)C1(Cc2ccccc2)CC(COCc2ccccc2)=NO1` (stereo partly drawn) [Example 257, ((1R)-1-(5-benzyl-3-((benzyloxy)methyl)-4,5-dihydroisoxazol-5-carboxamido)-2-phenylethyl)boronic acid], for which the IC50 in experiment [1] is > 2500 nM; in experiment [2], < 10 nM.

Regarding `Cc1ccccc1CC1(C(=O)N[C@@H](CC(C)C)B(O)O)CC(CNC(=O)c2nccc3ccccc23)=NO1` (stereo partly drawn) [Example 154, ((1R)-1-(3-((isoquinolin-1-carboxamido)methyl)-5-(2-methylbenzyl)-4,5-dihydroisoxazol-5-carboxamido)-3-methylbutyl)boronic acid], the figures for the IC50 in experiment [1] and in experiment [2] were > 500 nM and < 10 nM, respectively.

Take `CC(C)C[C@H](NC(=O)C1(Cc2ccccc2)CC(CNC(=O)c2cccc3[nH]ccc23)=NO1)B(O)O` (stereo partly drawn) [Example 127, ((1R)-1-(3-((1H-indol-4-carboxamido)methyl)-5-benzyl-4,5-dihydroisoxazol-5-carboxamido)-3-methylbutyl)boronic acid]: the IC50 in experiment [1] was > 500 nM; in experiment [2], < 10 nM.

Consider `CC(C)C[C@H](NC(=O)C1CC(CNC(=O)c2cccc(Oc3ccccc3)c2)=NO1)B(O)O` (stereo partly drawn) [Example 71, ((1R)-3-methyl-1-(3-((3-phenoxybenzamido)methyl)-4,5-dihydroisoxazol-5-carboxamido)butyl)boronic acid], for which the IC50 in experiment [1] was > 250 nM; in experiment [2] it was < 25 nM.

Take `COC[C@H](NC(=O)c1nccc2ccccc12)C1=NOC(Cc2ccccc2)(C(=O)N[C@@H](CC(C)C)B(O)O)C1` (stereo partly drawn) [Example 153, ((1R)-1-(5-benzyl-3-((R)-1-(isoquinolin-1-carboxamido)-2-methoxyethyl)-4,5-dihydroisoxazol-5-carboxamido)-3-methylbutyl)boronic acid]: the IC50 in experiment [1] is > 500 nM; in experiment [2] it was < 10 nM.

Turning to `CC(C)C[C@H](NC(=O)C1CC(CNC(=O)c2cccc3c2CCCC3)=NO1)B(O)O` (stereo partly drawn) [Example 63, ((1R)-3-methyl-1-(3-((5,6,7,8-tetrahydronaphthalen-1-carboxamido)methyl)-4,5-dihydroisoxazol-5-carboxamido)butyl)boronic acid], the IC50 in experiment [1] was > 500 nM; in experiment [2], < 10 nM.

`CC(C)C[C@H](NC(=O)C1(Cc2ccccc2)CC(CNC(=O)c2cccc3c2ccn3C)=NO1)B(O)O` (stereo partly drawn) [Example 138, ((1R)-1-(5-benzyl-3-((1-methyl-1H-indol-4-carboxamido)methyl)-4,5-dihydroisoxazol-5-carboxamido)-3-methylbutyl)boronic acid]: the IC50 in experiment [1] is > 500 nM; in experiment [2], < 10 nM.

As for `CC(C)C[C@H](NC(=O)C1(COc2ccccc2)CC(CNC(=O)c2nccc3ccccc23)=NO1)B(O)O` (stereo partly drawn) [Example 126, ((1R)-1-(3-((isoquinolin-1-carboxamido)methyl)-5-(phenoxymethyl)-4,5-dihydroisoxazol-5-carboxamido)-3-methylbutyl)boronic acid], the IC50 in experiment [1] was > 500 nM; in experiment [2] it was < 10 nM.

Take `Cc1cc(C(=O)NCC2=NOC(Cc3ccccc3)(C(=O)N[C@@H](CC(C)C)B(O)O)C2)no1` (stereo partly drawn) [Example 107, ((1R)-1-(5-benzyl-3-((5-methylisoxazol-3-carboxamido)methyl)-4,5-dihydroisoxazol-5-carboxamido)-3-methylbutyl)boronic acid]: the figures for the IC50 in experiment [1] and in experiment [2] were > 500 nM and < 10 nM, respectively.

Regarding `CC(C)C[C@H](NC(=O)C1(Cc2ccccc2)CC(CNC(=O)c2cc(C(F)(F)F)ccc2Cl)=NO1)B(O)O` (stereo partly drawn) [Example 112, ((1R)-1-(5-benzyl-3-((2-chloro-5-(trifluoromethyl)benzamido)methyl)-4,5-dihydroisoxazol-5-carboxamido)-3-methylbutyl)boronic acid], the IC50 in experiment [1] is > 2500 nM; in experiment [2], < 10 nM.

With `CC(C)C[C@H](NC(=O)C1(Cc2ccccc2)CC(CNC(=O)c2c[nH]c3ccccc23)=NO1)B(O)O` (stereo partly drawn) [Example 124, ((1R)-1-(3-((1H-indol-3-carboxamido)methyl)-5-benzyl-4,5-dihydroisoxazol-5-carboxamido)-3-methylbutyl)boronic acid], the results for the IC50 in experiment [1] and in experiment [2] were > 500 nM and < 10 nM, respectively.

Regarding `CC(C)C[C@H](NC(=O)C1(Cc2ccccc2)CC(CNC(=O)c2cccc3ccccc23)=NO1)B(O)O` (stereo partly drawn) [Example 92, ((1R)-1-(3-((1-naphthamido)methyl)-5-benzyl-4,5-dihydroisoxazol-5-carboxamido)-3-methylbutyl)boronic acid], the IC50 is > 500 nM in experiment [1] and < 10 nM in experiment [2].

For `Cc1nc(C)c(C(=O)NCC2=NOC(COc3ccccc3)(C(=O)N[C@@H](CC(C)C)B(O)O)C2)s1` (stereo partly drawn) [Example 141, ((1R)-1-(3-((2,4-dimethylthiazol-5-carboxamido)methyl)-5-(phenoxymethyl)-4,5-dihydroisoxazol-5-carboxamido)-3-methylbutyl)boronic acid], the 50% inhibitory concentration (IC50) in experiment [1] is > 500 nM; in experiment [2], < 10 nM.

As for `CC(C)C[C@H](NC(=O)C1(Cc2ccccc2)CC(CNC(=O)c2nn(C(C)C)c3ccccc23)=NO1)B(O)O` (stereo partly drawn) [Example 202, ((1R)-1-(5-benzyl-3-((1-isopropyl-1H-indazol-3-carboxamido)methyl)-4,5-dihydroisoxazol-5-carboxamido)-3-methylbutyl)boronic acid], the IC50 is > 500 nM in experiment [1] and < 10 nM in experiment [2].

Turning to `CC(C)C[C@H](NC(=O)C1(Cc2ccccc2)CC(CNS(=O)(=O)c2cc(Cl)ccc2Cl)=NO1)B(O)O` (stereo partly drawn) [Example 143, ((1R)-1-(5-benzyl-3-(((2,5-dichlorophenyl)sulfonamido)methyl)-4,5-dihydroisoxazol-5-carboxamido)-3-methylbutyl)boronic acid], the IC50 in experiment [1] was > 500 nM; in experiment [2], < 10 nM.

As to `CC(C)C[C@H](NC(=O)C1(Cc2ccccc2)CC(CNC(=O)c2cc(C(C)(C)C)nn2C(C)C)=NO1)B(O)O` (stereo partly drawn) [Example 224, ((1R)-1-(5-benzyl-3-((3-(tert-butyl)-1-isopropyl-1H-pyrazol-5-carboxamido)methyl)-4,5-dihydroisoxazol-5-carboxamido)-3-methylbutyl)boronic acid], the IC50 in experiment [1] was > 2500 nM; in experiment [2] it was < 10 nM.

Take `CC(C)C[C@H](NC(=O)C1(Cc2ccccc2)CC(CNC(=O)c2nccc3ccccc23)=NO1)B(O)O` (stereo partly drawn) [Example 84, ((1R)-1-(5-benzyl-3-((isoquinolin-1-carboxamido)methyl)-4,5-dihydroisoxazol-5-carboxamido)-3-methylbutyl)boronic acid]: the IC50 was > 1000 nM in experiment [1] and < 10 nM in experiment [2].

Regarding `CCCC1(C(=O)N[C@@H](CC(C)C)B(O)O)CC(CNC(=O)c2cc(Cl)ccc2Cl)=NO1` (stereo partly drawn) [Example 88, ((1R)-1-(3-((2,5-dichlorobenzamido)methyl)-5-propyl-4,5-dihydroisoxazol-5-carboxamido)-3-methylbutyl)boronic acid], the IC50 in experiment [1] was > 2500 nM; in experiment [2] it was < 25 nM.

With `CC(C)C[C@H](NC(=O)C1(Cc2ccccc2)CC(CNC(=O)c2cc(Cl)ccc2Cl)=NO1)B(O)O` (stereo partly drawn) [Example 85, ((1R)-1-(5-benzyl-3-((2,5-dichlorobenzamido)methyl)-4,5-dihydroisoxazol-5-carboxamido)-3-methylbutyl)boronic acid], the IC50 in experiment [1] was > 1000 nM; in experiment [2], < 10 nM.

Consider `Cc1cccc(COCC2=NOC(Cc3ccccc3)(C(=O)N[C@@H](CC(C)C)B(O)O)C2)n1` (stereo partly drawn) [Example 47, ((1R)-1-(5-benzyl-3-(((6-methylpyridin-2-yl)methoxy)methyl)-4,5-dihydroisoxazol-5-carboxamido)-3-methylbutyl)boronic acid], for which the IC50 in experiment [1] was > 250 nM; in experiment [2], < 10 nM.

Consider `CC(C)C[C@H](NC(=O)C1(Cc2ccccc2)CC(CNC(=O)c2cccc3c2cnn3C(C)C)=NO1)B(O)O` (stereo partly drawn) [Example 205, ((1R)-1-(5-benzyl-3-((1-isopropyl-1H-indazol-4-carboxamido)methyl)-4,5-dihydroisoxazol-5-carboxamido)-3-methylbutyl)boronic acid], for which the IC50 is > 500 nM in experiment [1] and < 10 nM in experiment [2].

For `CC(C)C[C@H](NC(=O)C1(Cc2ccccc2)CC(CNC(=O)c2ccnn2C2CCCC2)=NO1)B(O)O` (stereo partly drawn) [Example 189, ((1R)-1-(5-benzyl-3-((1-cyclopentyl-1H-pyrazol-5-carboxamido)methyl)-4,5-dihydroisoxazol-5-carboxamido)-3-methylbutyl)boronic acid], the IC50 in experiment [1] was > 1000 nM; in experiment [2], < 10 nM.

Regarding `CC(C)C[C@H](NC(=O)C1(Cc2ccccc2)CC(CNC(=O)c2cccc(Cl)n2)=NO1)B(O)O` (stereo partly shown) [Example 308], the IC50 was > 500 nM in experiment [1] and < 10 nM in experiment [2].

(Values after patent publication US12570675B2, “Boronic acid compounds” (LG CHEM, LTD., priority 2020, dated 2026).)
